Data taken from US20170369523A1, “TEMPLATE-FIXED BETA-HAIRPIN PEPTIDOMIMETICS THAT ARE LIGANDS FOR G-PROTEIN-COUPLED RECEPTORS (GPCRS) AND ARE MODULATORS OF TRANSCRIPTION FACTORS AND COACTIVATORS” (POLYPHOR AG, priority 2008, published 2017).
Like-named read-outs stand apart in the source and are kept apart here. Numbered stars: 1 amine (or outer) side, 2 acyl side, 3 side chain; on linkers, the order of the positions; unused ones are H or OH. Bridge positions count the residues as written; N and C are the ends. Square brackets hold non-standard residues; d marks the D form. Glu(cHx) = L-glutamic acid cyclohexyl ester, O=C(CC[C@H](N[*:1])C(=O)[*:2])OC1CCCCC1; Pro(4S-SH) = O=C([C@@H]1C[C@H](S[*:3])CN1[*:1])[*:2]; Trp(6-Cl) = N[C@@H](Cc1c[nH]c2cc(Cl)ccc12)C(=O)O; Orn = NCCC[C@H](N)C(=O)O

B1: Ex. 32 (peptide)
peptide: cyclo(DCF[dW][Orn]YCV[dP]P)
modifications: disulfide 2-7
SMILES: CC(C)[C@@H]1NC(=O)[C@@H]2CSSC[C@H](NC(=O)[C@H](CC(=O)O)NC(=O)[C@@H]3CCCN3C(=O)[C@H]3CCCN3C1=O)C(=O)N[C@@H](Cc1ccccc1)C(=O)N[C@H](Cc1c[nH]c3ccccc13)C(=O)N[C@@H](CCCN)C(=O)N[C@@H](Cc1ccc(O)cc1)C(=O)N2

What was measured:
[1] = target: T1, human UTR2 receptor (Homo sapiens, UniProt Q9UKP6); test: Ca2+ assay: UTR2 receptor-agonizing and antagonizing activity (calcium mobilization, Flexstation); assay type: cell-based
T1 construct: expressed in transfected cells; host or cells: mouse pre-B cell line 300-19
T1 sequence (Q9UKP6 1-389): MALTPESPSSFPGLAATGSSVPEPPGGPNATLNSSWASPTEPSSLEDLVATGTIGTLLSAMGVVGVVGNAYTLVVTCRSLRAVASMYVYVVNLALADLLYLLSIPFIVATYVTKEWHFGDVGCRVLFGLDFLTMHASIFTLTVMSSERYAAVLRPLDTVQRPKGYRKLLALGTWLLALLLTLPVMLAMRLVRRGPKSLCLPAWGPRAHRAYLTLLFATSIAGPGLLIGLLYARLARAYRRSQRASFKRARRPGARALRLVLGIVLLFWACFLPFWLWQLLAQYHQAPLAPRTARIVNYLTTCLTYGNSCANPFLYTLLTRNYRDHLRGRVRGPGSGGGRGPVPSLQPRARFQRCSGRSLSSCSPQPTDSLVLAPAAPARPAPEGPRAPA
Text: 2.3. Ca^2+− Assay: UTR2 Receptor-Agonizing and Antagonizing Activity of the Peptides
The mouse pre-B cell line 300-19 was stably transfected with the cDNA encoding the human UTR2 receptor (GenBank Acc# NM_018949), and expression was confirmed with a positive calcium signal in response to human urotensin (Sigma Aldrich). Increases in intracellular calcium were monitored using a Flexstation 384 (Molecular Devices, Sunnyvale, Calif.). The cells were batch loaded with the Calcium 4 Assay kit (Molecular Devices) in assay buffer (Hanks Balanced salt solution, HBSS, 20 mM HEPES, pH 7.4, 0.1% BSA) for 1 h at room temperature and labeled cells were dispensed into either black 96 well or 384 well assay plates (Greiner). Calcium mobilization induced by urotensin or test compounds was measured in the Flexstation 384 (excitation, 485 nm; emission, 525 nm) for 70 seconds. Agonist activity was determined by direct addition of ligand or peptides, while antagonists were identified by spiking the cells with test compounds prior to urotensin addition. A dose response curve (compound concentration versus % maximum response for urotensin) was determined for each active agonist and antagonist and was fitted to a four parameter logistic equation using SoftmaxPro 4.8 (Molecular Devices), from which EC50% and IC50% values were calculated.

[2] = Plasma stability, mouse plasma; assay type: in vitro ADME; conditions: 37° C., sampled up to 240 min
Description: (§1) The stability of the peptides in human and mouse plasma was determined by applying the following method: 315 μl/deep well of freshly thawed human plasma (Basler Blutspende-dienst) and mouse plasma (Harlan Sera-Lab, UK), respectively, were spiked with 35 μl/well of compound in PBS (100 μM, triplicate) and incubated at 37° C. At t=0, 15, 30, 60, 120 and 240 min aliquots of 50 μl were transferred to filtration plate wells containing 150 μl/well of acetonitrile. Following shaking for 2 min the occurred suspensions were filtrated by vacuum and finally. 100 μl of each filtrate were transferred to a propylene microtiter plate, and analyzed by LC/MS as follows: Column: Waters, XBridge C18, mobile phases: (A) water+0.1% formic acid and (B) acetonitrile/water, 95/5 (v/v)+0.1% formic acid, gradient: 5%-100% (B) in 2 minutes, electrospray ionization, MRM detection (triple quadrupole). The peak areas were determined and triplicate values were averaged. The stability was expressed in percent of the initial value at t=0. (tx/t0×100). By using the TREND function of EXCEL (Microsoft Office 2003) T1/2 were determined.

[3] = in vitro; assay type: cell-based
Description: (§2) The cytotoxicity of the peptides to HELA cells (Acc57) and COS-7 cells (CRL-1651) was determined using the MTT reduction assay. Briefly, the method was as follows: 7000 HELA cells/well and 4500 COS-7 cells/well were seeded and grown in 96-well microtiter plates for 24 h at 37° C. at 5% CO2. Thereafter, time zero (Tz) was determined by MTT reduction (see below). The supernatant of the remaining wells was discarded, and fresh medium and compounds in serial dilutions (12.5, 25 and 50 μM, triplicates) were pipetted into the wells. After incubation of the cells for 48 h at 37° C. at 5% CO2 the supernatant was discarded again and 100 μL MTT reagent (0.5 mg/mL in RPMI1640 and DMEM, respectively)/well was added. Following incubation at 37° C. for 2 h the media were aspirated and the cells were spiked (100 μl isopropanol/well). The absorbance of the solubilized formazan was measured at 595 nm (OD595peptide). For each concentration averages were calculated from triplicates. The percentage of growth was calculated as follows: (OD595peptide-OD595Tz-OD595Empty well)/(OD595Tz-OD595Empty well)×100%. The GI50 (Growth Inhibition) concentrations were calculated for each peptide by using a trend line function for the concentrations (50, 25, 12.5 and 0 μM), the corresponding percentages and the value 50, (=TREND (C50:C0,%50:%0,50).

[4] = tested on: human red blood cells (hRBC); assay type: cell-based; conditions: red cells of human, 1 h
Description: The peptides were tested for their hemolytic activity against human red blood cells (hRBC). Fresh hRBC were washed three times with phosphate buffered saline (PBS) and centrifuged for 10 min at 2000×g. Compounds (100 μM) were incubated with 20% hRBC (v/v) for 1 h at 37° C. The final erythrocyte concentration was approximately 0.9×10^9 cells/mL. A value of 0% and 100% cell lyses, respectively, was determined by incubation of hRBC in the presence of PBS alone and 0.1% Triton X-100 in H2O, respectively. The samples were centrifuged, the supernatants were 20-fold diluted in PBS buffer and the optical densities (OD) were measured at 540 nm. The 100% lyses value (OD540H2O) gave an OD540 of approximately 1.3-1.8. Percent hemolysis was calculated as follows: […]

[5] = in vitro; assay type: cell-based; remark: listed apart in the source
Description: as §2

[6] = Plasma stability, human plasma; assay type: in vitro ADME; conditions: 37° C., sampled up to 240 min
Description: as §1

[7] = target: T2, NCoA-1 (Homo sapiens, UniProt Q15788); test: Competition fluorescence polarization assay: NCoA-1 binding affinities of peptides (STAT6/NCoA-1 interaction); conditions: competition with FluoSTAT6 (200 nM), NCoA-1 1 μM; Ki calculated from IC50; read-out: Ki [μM], peptide binding to NCoA-1
T2 sequence (Q15788 257-385 limits assumed): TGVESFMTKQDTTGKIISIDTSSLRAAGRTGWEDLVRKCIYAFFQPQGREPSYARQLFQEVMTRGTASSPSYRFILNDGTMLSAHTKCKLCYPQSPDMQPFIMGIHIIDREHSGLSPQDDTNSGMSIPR
Description: 2.4. Fluorescence Polarization Assay: NCoA-1 Binding Affinities of Peptides
The mixtures were shaken thoroughly. Fluorescence polarization was measured on a SPECTRAmax M5 spectrometer (Molecular device) following 5-30 min incubation at room temperature. FluoSTAT6 was excited at 490 nm and emission polarization was detected at 525 nm. 40 intensity measurements were collected for each well, 20 at horizontal position of the dynamic polarizer, 20 at parallel position. As the fraction of FluoSTAT6 bound to NCoA-1 is correlated to the fluorescence polarization (FP), after normalization, the fraction of bound FluoSTAT6 (B) was determined, and the KD was calculated according to B=[(1+P/R+KD/R)−((1+P/R+KD/R)^2−4P/R)^0.5]/2, wherein P is the total probe concentration, R the total protein concentration and KD the dissociation constant (M. H. Roehrl, J. Y. Wang, G. Wagner, Biochemistry 2004, 3, 16056).
The mixture was completed by a HEPES buffer solution of NCoA-1 (1 μM final concentration) and processed as described above. STAT6Y (C-terminal tyrosine extended STAT6 794-814 peptide) was used as a positive control. As the total fluorescence intensity of FluoSTAT6 remains similar for all samples, the fraction of peptide bound to NCoA-1 is correlated to the fluorescence polarization.
Following normalization data were fitted with IGORpro Software® (WaveMetrics, Lake Oswego, Oreg., USA) to a sigmoid equation to determine IC50 values. The Ki values were calculated from IC50 values according to the method described by Nikolovska-Coleska et al. Anal. Biochem., 2004, 332, 261).

[8] = target: T3, human UTR2 receptor (human, UniProt Q9UKP6 1-389); test: cell-based or functional assay
T3 sequence (looked up): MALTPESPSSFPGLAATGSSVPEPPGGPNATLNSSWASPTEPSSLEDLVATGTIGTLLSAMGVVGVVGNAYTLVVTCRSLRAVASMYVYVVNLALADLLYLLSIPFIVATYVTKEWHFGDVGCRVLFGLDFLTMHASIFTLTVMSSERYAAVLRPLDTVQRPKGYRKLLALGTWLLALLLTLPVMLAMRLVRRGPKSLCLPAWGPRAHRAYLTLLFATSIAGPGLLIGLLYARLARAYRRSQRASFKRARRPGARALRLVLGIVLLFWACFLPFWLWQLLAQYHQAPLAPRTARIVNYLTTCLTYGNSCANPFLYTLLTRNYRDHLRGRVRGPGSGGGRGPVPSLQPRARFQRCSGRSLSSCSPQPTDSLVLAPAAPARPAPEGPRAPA

Molecule | EC50 [1] | Plasmastability mouse pl. T1/2 [2] | GI50 [3] | Hemolysis at 100 μM [%] [4] | GI50 [5] | Plasmastability human pl. T1/2 [6] | Ki [7] | IC50% (Ca2+ assay, antagonist activity; compound added prior to urotensin) [8]
CC(C)C[C@@H]1NC(=O)[C@@H]2CSSC[C@H](NC(=O)[C@H](CC(=O)O)NC(=O)[C@@H]3CCCN3C(=O)[C@H]3CCCN3C1=O)C(=O)N[C@@H](Cc1ccc(O)cc1)C(=O)N[C@@H](Cc1c[nH]c3ccccc13)C(=O)N[C@@H](CCCCN)C(=O)N[C@@H](Cc1ccc(O)cc1)C(=O)N2 [compound 33] | < 0.002 µM | 4 h | > 50 µM | 0% | > 50 µM | 4 h | – | –
CC(C)[C@@H]1NC(=O)[C@@H]2CSSC[C@H](NC(=O)[C@H](CC(=O)O)NC(=O)[C@@H]3CCCN3C(=O)[C@H]3CCCN3C1=O)C(=O)N[C@@H](Cc1ccccc1)C(=O)N[C@H](Cc1c[nH]c3ccccc13)C(=O)N[C@@H](CCCCN)C(=O)N[C@@H](Cc1ccc(O)cc1)C(=O)N2 [compound 34] | < 0.002 µM | 4 h | > 50 µM | 0% | > 50 µM | 4 h | – | –
backbone-cyclized β-hairpin peptidomimetic; P1-P8 Phe-Glu-Trp-Leu-Ala-Trp-Glu-Glu(cHx), template DPro-LPro (cyclo(FEWLAWE[Glu(cHx)][dP]P); SMILES CC(C)C[C@@H]1NC(=O)[C@H](Cc2c[nH]c3ccccc23)NC(=O)[C@H](CCC(=O)O)NC(=O)[C@H](Cc2ccccc2)NC(=O)[C@@H]2CCCN2C(=O)[C@H]2CCCN2C(=O)[C@H](CCC(=O)OC2CCCCC2)NC(=O)[C@H](CCC(=O)O)NC(=O)[C@H](Cc2c[nH]c3ccccc23)NC(=O)[C@H](C)NC1=O) [compound 9] | – | – | – | – | – | – | 1.5 µM | –
backbone-cyclized β-hairpin peptidomimetic; P1-P8 Phe-Thr-Trp(6Cl)-Leu-Ala-Trp-Glu-Phe, template DPro-L4Mp1 (cyclo(FT[Trp(6-Cl)]LAWEF[dP][Pro(4S-SH)]); SMILES CC(C)C[C@@H]1NC(=O)[C@H](Cc2c[nH]c3cc(Cl)ccc23)NC(=O)[C@H]([C@@H](C)O)NC(=O)[C@H](Cc2ccccc2)NC(=O)[C@@H]2C[C@H](S)CN2C(=O)[C@H]2CCCN2C(=O)[C@H](Cc2ccccc2)NC(=O)[C@H](CCC(=O)O)NC(=O)[C@H](Cc2c[nH]c3ccccc23)NC(=O)[C@H](C)NC1=O) [compound 5] | – | – | – | – | – | – | 3.8 µM | –
B1 | – | – | – | – | – | – | – | 30 pM
